# Measurements: paper PMC6915745, “TRIB3 supports breast cancer stemness by suppressing FOXO1 degradation and enhancing SOX2 transcription” (Nature Communications, 2019)
# Entries after “also recorded” stand apart in the source; their conditions may differ.
# Key:
# [1] = test system: MCF7 cells; assay: Mammosphere (tumorsphere) formation, MCF7 cells; format: cell-based, human; conditions: one week of IL-6, serum-free spheroid suspension culture
# [2] = test system: TRIB3; assay: TRIB3 expression after cytokines or stressors, MCF7 cells (WB); format: cell-based, human
# Description: (§1) Cycloheximide (CHX; Sigma Aldrich, R750107) was used as a protein synthesis inhibitor to assess the stability of the existing proteins. To assess protein stability, cells were treated with 20 μM CHX and the proteasome inhibitor MG132 (Sigma Aldrich, R750107) at 10 μM or the autophagy inhibitor BAF (Sigma Aldrich, B1793) at 200 nM for the indicated times. Protein expression was assessed via immunoblot analysis with cell lysates (20–60 μg) prepared in RIPA lysis buffer containing protease inhibitors (Roche) using anti-SOX2 (3529), anti-NANOG (4903), anti-OCT4 (2750), anti-KLF4 (4038), anti-c-Myc (13987), anti-FOXO1 (2880), anti-p-FOXO1 (9461), anti-AKT (4685), anti-p-AKT (4060), anti-β-ACTIN (4970), anti-Ubiquitin (3936), or anti-LaminA/C (4777) antibodies from CST; anti-TRIB3 antibody (ab75846) from Abcam; and anti-Trib3 antibody (PA5-15480) from Thermo Fisher Scientific[59]. All antibodies were used at 1:1000 dilution, with the exception of anti-β-Actin antibodies, which were used at 1:2000 dilution. The protein concentrations were determined by BCA Protein Assay Kits (Pierce). Proteins were separated by SDS-polyacrylamide gel electrophoresis (PAGE) and transferred to polyvinylidene difluoride membrane. […]
# (f, g) The expression of
# TRIB3 in MCF7 cells (top) or MDA-MB-231 cells (bottom) treated with various concentrations of IL6 for
# 8 hr (f) or 10 ng/ml IL-6 for different amounts of time (g) was detected by WB. (h) Silencing TRIB3
# decreased the tumor sphere formation ability of MCF7 cells with or without IL-6 stimulation. […]
# Data are shown as the mean ± SEM; P>0.05 was considered not significant (N.S.); *P<0.05, **P<0.01
# and ***P<0.001, compared with the con group in panels d-f. Source data are provided as a Source Data
# [3] = test system: TRIB3; assay: TRIB3 expression after IL-6, MDA-MB-231 cells (WB); format: cell-based; conditions: various IL-6 concentrations 8 hr, or 10 ng/ml IL-6 for different times
# Description: as §1, with “All antibodies were used at 1:1000 dilution, with the exception of anti-β-Actin antibodies, which were used at 1:2000 dilution.” left out, “(Pierce).” for “(Pierce). Proteins were separated by SDS-polyacrylamide gel electrophoresis (PAGE) and transferred to polyvinylidene difluoride membrane.”
# (GSE12790). Relative amounts of TRIB3 transcripts were measured using the 205805_s_at probe. […]
# levels of TRIB3 mRNA. Metastasis-free survival was determined by Kaplan–Meier analyses, and
# significant differences were determined by log-rank tests. […]
# 24 hr, glucose deprivation (DG) for 12 hr, and high glucose (HG) for 24 hr was detected by Western […]
# 8 hr (f) or 10 ng/ml IL-6 for different amounts of time (g) was detected by WB. […]
# [4] = test system: MCF7 cells; assay: TRIB3/AKT/FOXO1/SOX2 axis after IL-6, CoCl2 or high glucose, MCF7 cells (WB); format: cell-based, human; conditions: MCF7 cells, IL-6 12 hr, high glucose 24 hr, WB
# [5] = test system: TRIB3; assay: Relative TRIB3 mRNA in control or FOXO1-silenced MCF7 cells after stressors; format: cell-based, human; conditions: FOXO1-shRNA MCF7 cells, in words
substance,measurement,setting,value
IL-6: cytokine interleukin (IL)-6,tumorsphere-formation ability,[1],increased the tumorsphere-formation ability
same,TRIB3 expression,"[2]; cytokines 8 hr, high glucose 24 hr",enhanced TRIB3 expression in MCF7 cells
same,"TRIB3 expression, dose- and time-dependence","[2]; various IL-6 concentrations 8 hr, or 10 ng/ml IL-6 for different times",enhanced TRIB3 expression in MCF7 and MDA-MB-231 cells in dose-
same,"TRIB3 expression, dose- and time-dependence",[3],enhanced TRIB3 expression in MCF7 and MDA-MB-231 cells in dose-
same,expressions of FOXO1 and SOX2,[4]; CoCl2 24 hr,enhance; also recorded: enhanced expressions of FOXO1 and SOX2
same,activity of FOXO1 S256,[4],reduced the activity of FOXO1^S256
same,TRIB3 expression in FOXO1-silenced BCCs,[5],could enhance TRIB3 expression in FOXO1-silenced BCCs
